Data reported in patent publication US4338330A, “Benzimidazole derivatives, their use, and compositions containing these derivatives” (Continental Pharma, priority 1979, dated 1982).
Counter-ions that a name gives are not always drawn. Like-named read-outs stand apart in the source and are kept apart here.

Legend:
[1] = system: guinea pig ileum contractions induced by acetylcholine; assay: Antispasmodic activity against ileum contractions induced by acetylcholine
Protocol: (§1) The antispasmodic activity of the studied substances was examined against guinea pig ileum contractions induced by histamine and acetylcholine.
(§2) These experiences allow to make it obvious an antihistaminic, anticholinergic or musculotrope activity. The response to the contracting agent (sub-maximum concentration) is obtained every 5 minutes before and after injection of increasing concentrations of tested products (10^-7 M to 10^-4 M). The inhibition percentage under the influence of tested products is calculated and the theoretical concentration giving 50% of inhibition is graphically determined for each experience. These values are expressed in -log CI50 (M).

[2] = system: isolated guinea pig auricles; assay: Chronotrope effect of the substance on isolated auricles; conditions: 10^-6 M, 20 minutes, Tyrode, 29° C.
Protocol: The β-lytic effect was searched on the chronotropic response to noradrenaline of isolated guinea pig auricles. Auricles were incubated for 20 minutes in a Tyrode solution at 29° C. in the presence of the substance to be tested at the concentration of 10^-6 M. A positive (+) or negative (-) chronotrope effect of the substance was noted using the following scores: […]

[3] = LD50 in mice, oral (Lichtfield and Wilcoxon method); format: in vivo
Protocol: LD50 were determined according to the Lichtfield and Wilcoxon method (J. Pharmacol. Exp. Ther. 96, 99, 1949) and expressed in mg/kg. The products were administered to mice orally.

[4] = system: chronotropic response to noradrenaline of isolated guinea pig auricles; assay: β-lytic effect on the chronotropic response to noradrenaline of isolated auricles
Protocol: The β-lytic effect was searched on the chronotropic response to noradrenaline of isolated guinea pig auricles. Auricles were incubated for 20 minutes in a Tyrode solution at 29° C. in the presence of the substance to be tested at the concentration of 10^-6 M. A positive (+) or negative (-) chronotrope effect of the substance was noted using the following scores:
Then, the chronotrope effect of cumulative increasing concentrations of noradrenaline was recorded. The pD2 (-log CE50) value was calculated. A score of β-lytic activity of the substance was given as follows:
If the score at concentration of 10^-6 M was 3 or 4, the effect of the substance was examined at concentration of 10^-7 M and a score was recorded according to the same procedure.

[5] = system: guinea pig ileum contractions induced by histamine; assay: Antispasmodic activity against ileum contractions induced by histamine
Protocol: as §1, §2

[6] = Antihypertensive activity, oral, unanesthetized spontaneously hypertensive rats; format: in vivo
Protocol: […] Only rats having a systolic pressure of 180 to 220 mm Hg are used. Two rats are used by product. The treatments are administered without the knowledge of the person making the measure.
The antihypertensive effects were recorded according to a score followed by an index. The scoring system is as follows.
The index is calculated by multiplying the systolic pressure difference (cmHg) measured every 30 minutes after the treatment, by a coefficient of 1 to 6 corresponding to times of 30 to 180 minutes.

[7] = system: β1 cardiac receptors versus β2 tracheal receptors; assay: Cardioselectivity (auricles versus trachea); set-up: species or system guinea pig; conditions: from difference of pA2 on auricles and trachea
Protocol: The effect on β1 cardiac receptors is measured by inhibition of the chronotropic response to noradrenaline of guinea pig auricles and of the inotrope response to isoproterenol of guinea pig left auricles which were electrically stimulated. The cardioselectivity is appreciated by measuring the antagonist effect at the level of β2 receptors of the guinea pig trachea. To this end, a tracheal chain is contracted by a maximum concentration of histamine and inhibition of relaxation by isoproterenol is measured. The values calculated for cardioselectivity are obtained by considering the difference between pA2 values of the chronotrope response and the relaxation on the one hand (1st column) and of the inotrope response and relaxation on the other hand (2nd column). For these various experiences, pA2 is calculated according to the Van Rossum method (Arch. Inern. Pharmacodyn., 143, 299-330, 1963).

[8] = mouse, in vivo, po, read-out: LD50
[9] = 60 mg/kg oral, spontaneously hypertensive rats
[10] = 60 mg/kg oral, systolic pressure difference (cmHg) every 30 min multiplied by time coefficient 1 to 6

Structure (SMILES) | Antispasmodic activity, Ac. Chol. (-log CI50 (M)) [1] | Chronotrope effect (score) [2] | LD50 [3, 8] | β-lytic effect (score) ([4]; 10^-6 M) | β-lytic effect (score) ([4]; 10^-7 M) | Antispasmodic activity, Hist. (-log CI50 (M)) [5] | Antihypertensive activity (score) [6, 9] | Antihypertensive activity (index) [6, 10] | LD50 [3] | Antihypertensive activity (index) ([6]; at 10 mg, oral) | Antihypertensive activity (score) ([6]; at 10 mg, oral) | times more active on β cardiac receptors than on β2 receptors [7]
CC(C)(C)NCC(O)COc1ccc(-c2nc3ccccc3[nH]2)cc1 (centres unmarked) [Compound 4, 2-[4-(3-t-butylamino-2-hydroxypropoxy)phenyl]benzimidazole] | 5.72 -log CI50 (M) | 0 (if the frequency modification was comprised between +6 and -6) | 1420 mg/kg | 3 (if 6.00≥pD2 ≥5.51) | 1 (if 6.80≥pD2 ≥6.41) | 5.64 -log CI50 (M) | ++++ (reduction>50 mm Hg) | 192 |  |  |  | 
CC(C)NCC(O)COc1ccc(-c2nc3ccccc3[nH]2)cc1 (centres unmarked) [Compound 8, 2-[4-(3-isopropylamino-2-hydroxypropoxy)phenyl]benzimidazole] | 4.95 -log CI50 (M) | 0 (if the frequency modification was comprised between +6 and -6) |  | 4 (if pD2 ≤5.50) |  | 4.65 -log CI50 (M) |  |  | > 2248 mg/kg | 66 | +++ (reduction of 30 to 50 mm Hg) | 
CC(C)NCC(O)COc1ccc(-c2nc3ccccc3[nH]2)cc1 (centres unmarked) [Compound 9, 2-[4-(3-isopropylamino-2-hydroxypropoxy)phenyl]benzimidazole] | 4.60 -log CI50 (M) | 0 (if the frequency modification was comprised between +6 and -6) |  | 4 (if pD2 ≤5.50) |  | 4.75 -log CI50 (M) |  |  | 2620 mg/kg | 68 | +++ (reduction of 30 to 50 mm Hg) | 
CC(C)NCC(O)COc1ccc(-c2nc3ccccc3[nH]2)cc1 (centres unmarked) [Compound 10, 2-[4-(3-isopropylamino-2-hydroxypropoxy)phenyl]benzimidazole] | 4.95 -log CI50 (M) | 0 (if the frequency modification was comprised between +6 and -6) |  | 4 (if pD2 ≤5.50) |  | 4.31 -log CI50 (M) |  |  | 1960 mg/kg | 61 | +++ (reduction of 30 to 50 mm Hg) | 
CC(C)NCC(O)COc1ccc(-c2nc3ccccc3[nH]2)cc1 (centres unmarked) [Compound 11, 2-[4-(3-isopropylamino-2-hydroxypropoxy)phenyl]benzimidazole (dihydrated glucuronate)] | 4.30 -log CI50 (M) | 1 |  | 4 (if pD2 ≤5.50) |  | 4.52 -log CI50 (M) |  |  | 1494 mg/kg | 51 | +++ (reduction of 30 to 50 mm Hg) | 
CC(C)NCC(O)COc1ccc(-c2nc3ccccc3[nH]2)cc1 (centres unmarked) [Compound 12, 2-[4-(3-isopropylamino-2-hydroxypropoxy)phenyl]benzimidazole] | 4.75 -log CI50 (M) | 0 (if the frequency modification was comprised between +6 and -6) |  | 4 (if pD2 ≤5.50) | 2 (if 6.40≥pD2 ≥6.01) | 4.60 -log CI50 (M) | ++++ (reduction>50 mm Hg) | 160 | 1950 mg/kg |  |  | 
CC(CCc1ccc2c(c1)OCO2)NCC(O)COc1ccc(-c2nc3ccccc3[nH]2)cc1 (centres unmarked) [Compound 13] | 6.15 -log CI50 (M) | 0 (if the frequency modification was comprised between +6 and -6) | > 1000 mg/kg | 2 (if 6.40≥pD2 ≥6.01) |  | 6.46 -log CI50 (M) | 0 (reduction <10 mm Hg) |  |  |  |  | 
Cc1ccc2[nH]c(-c3ccc(OCC(O)CNC(C)C)cc3)nc2c1 (centres unmarked) [Compound 14, 2-[4-(3-isopropylamino-2-hydroxypropoxy)phenyl]-5(6)-methylbenzimidazole (hydrochloride)] | 5.10 -log CI50 (M) | 1 | 1450 mg/kg | 4 (if pD2 ≤5.50) | 2 (if 6.40≥pD2 ≥6.01) | 4.85 -log CI50 (M) | ++++ (reduction>50 mm Hg) | 83 |  |  |  | 
Cc1cc2nc(-c3ccc(OCC(O)CNC(C)C)cc3)[nH]c2cc1C (centres unmarked) [Compound 15] | 5.38 -log CI50 (M) | 0 (if the frequency modification was comprised between +6 and -6) | 1450 mg/kg | 3 (if 6.00≥pD2 ≥5.51) | 1 (if 6.80≥pD2 ≥6.41) | 5.45 -log CI50 (M) | ++++ (reduction>50 mm Hg) | 110 |  |  |  | 
CC(C)NCC(O)COc1ccc(-c2nc3cc(Cl)ccc3[nH]2)cc1 (centres unmarked) [Compound 16] | 5.25 -log CI50 (M) | 0 (if the frequency modification was comprised between +6 and -6) | 1100 mg/kg | 3 (if 6.00≥pD2 ≥5.51) | 1 (if 6.80≥pD2 ≥6.41) | 5.58 -log CI50 (M) | ++++ (reduction>50 mm Hg) | 90 |  |  |  | 
COc1ccc2[nH]c(-c3ccc(OCC(O)CNC(C)C)cc3)nc2c1 (centres unmarked) [Compound 19] | 4.70 -log CI50 (M) | 1 |  | 4 (if pD2 ≤5.50) |  | 4.99 -log CI50 (M) | +++ (reduction of 30 to 50 mm Hg) | 59 |  |  |  | 
Cc1ccc(OCCNCC(O)COc2ccc(-c3nc4ccccc4[nH]3)cc2)cc1 (centres unmarked) [Compound 22] | 5,35 -log CI50 (M) | 0 (if the frequency modification was comprised between +6 and -6) |  | 2 (if 6.40≥pD2 ≥6.01) |  | 5,65 -log CI50 (M) | 0 (reduction <10 mm Hg) |  |  |  |  | 
COCCc1ccc(OCC(O)CNC(C)C)cc1 (centres unmarked) [Metroprolol, reference compound] |  |  |  |  |  |  |  |  |  |  |  | 65 times
